In patent publication US12187672B2, “1,2-diacylglycerol compound, preparation method therefor, and immunomodulator containing same as active ingredient” (ENZYCHEM LIFESCIENCES CORPORATION, priority 2018, dated 2025):

B1: IL-4: IL-4 used to induce STAT6 activity in A549 cells (protein, UniProt P05112 25-153, looked up)
Interleukin-4: HKCDITLQEIIKTLNSLTEQKTLCTELTVTDIFAASKNTTEKETFCRAATVLRQFYSHHEKDTRCLGATAQQFHRHKQLIRFLKRLDRNLWGLAGLNSCPVKEANQSTLENFLERLKTIMREKYSKCSS

How the values were obtained:
[1] = test system: HL-60 cells; experiment: Migration of HL-60 cell line toward THP-1 culture supernatant (transmigration assay); format: cell-based, human
Experimental: In RPMI (Hyclone, Thermo Scientific) medium to which 10% Fetal Bovine Serum was added, THP-1 cells, a human macrophage family, were subcultured at a concentration of 1×10^5 cells/ml, and culture was conducted in a 5% CO2 humidified incubator at 37° C. In order to prepare the THP-1 cell culture solution to be treated in the lower well during the transmigration assay, first, the cultured THP-1 cells were inoculated into a 12 well plate by 1×10^6 cells/ml and stabilized for 30 minutes. Then, the culture solution was treated with a glycerol derivative compounds of the type shown in Table 7 below for 1 hour and then was treated with Gemcitabine (2 μg/ml) of a cell stimulator, and subsequent further incubation was conducted for 24 hours. Thereafter 1.5 ml of the culture supernatant was collected for each well and centrifuged (at 3000 rpm, 5 minutes) to recover the supernatant. The CXCL8 (IL-8) level in the recovered supernatant was measured according to the manual provided by Cultrex 96 well Laminin Cell Invasion assay. The day before Transmigration assay was carried out, a 1× Lamin I solution was treated in the upper Invasion Chamber and coated. Thereafter, in RPMI (Hyclone, Thermo Scientific) medium to which 10% Fetal Bovine Serum was added, the cultured HL-60 cells were despensed of 5×10^4 cells/chamber, and 150 μl of the THP-1 culture supernatant prepared in advance was added to the lower chamber. Thereafter the upper chamber was removed, and the cells were attached to the bottom of the lower chamber by a centrifuge, and then the supernatant was removed. Cell dissociation/Calcein-AM solution was added and reacted for 1 hour. Then, the value obtained using a fluorescence spectroscopy was calculated by converting the number of cells.

[2] = test system: IL-6; experiment: LPS-induced IL-6 secretion reduction in RAW264.7 cells (ELISA); format: cell-based, mouse; settings: sample 100 μg/ml 1 h, then LPS 1 μg/ml 24 h, Table 3
Experimental: In DMEM (Dulbecco Modified Eagle Medium, Hyclone, Thermo Scientific) medium to which 10% Fetal Bovine Serum was added, RAW264.7 cells, a mouse macrophage family, were suspended at a concentration of 1×10^5 cells/ml, and culture was conducted in a 5% CO2 humidified incubator at 37° C. The cultured RAW264.7 cells were inoculated into a 48 well plate by 5×10^4 cells/ml and stabilized for 15 hours. Then, the culture solution was treated with a glycerol derivative compounds of the type shown in Table 2 and 3 below for 1 hour and then was treated with 1 μg/ml of Lipopolysaccaride (LPS) of a cell stimulator, and subsequent further incubation was conducted for 24 hours. Thereafter 0.5 ml of the culture supernatant was collected for each well and centrifuged (at 3000 rpm, 5 minutes) to recover the supernatant. The IL-6 level in the recovered supernatant was measured according to the manual provided by the Mouse IL-6 ELISA set (BD Biosciences). The day before ELISA was carried out, the IL-6 capture antibody was diluted in phosphate buffered saline, coated on a microwell, and then stored at 4° C. overnight. Each well was washed three times with a buffer solution and then blocked with 2% Bovine Serum Albumin (BSA) for 1 hour at room temperature. After washing with buffer solution three times, […] of sample was dispensed into each well and left at room temperature for 2 hours. Detection antibody which was washed 3 times with washing buffer solution and diluted was dispensed into each well and allowed to react at room temperature for 1 hour and left at room temperature for 1 hour. Thereafter, the secondary HRP conjugated antibody was reacted at room temperature for 30 minutes, washed three times with a buffer solution, and treated with 50 μl of stop solution for each well, and then the optical density was measured at 450 nm with an ELISA microplate leader. The results of the IL-6 expression reduction rate (IL-6 concentration) are shown in Table 2, Table 3, FIG. 1 and FIG. 2 below.

[3] = test system: IL-4; experiment: PKC activator-induced IL-4 secretion reduction in EL-4 cells (ELISA); format: cell-based, mouse; settings: sample 100 μg/ml 2 h, then PKC activator 18 h, Table 12
Experimental: In DMEM (Dulbecco Modified Eagle Medium, Hyclone, Thermo Scientific) medium to which 10% Fetal Bovine Serum was added, EL-4 cells, a mouse lymphoma family, were subcultured at a concentration of 1×10^5 cells/ml, and culture was conducted in a 5% CO2 humidified incubator at 37° C. The cultured EL-4 cells were inoculated into a 48 well plate by 5×10^4 cells/ml and stabilized for 30 hours. Then, the culture solution was treated with a glycerol derivative compounds of the type shown in Table 11 and 12 below for 2 hours. Thereafter, it were treated with 0.5 μg/ml of PKC activator (p10, some kind of PMA) of a cell stimulator, and subsequent further incubation were conducted for 18 hours. Thereafter 0.5 ml of the culture supernatant was collected for each well and centrifuged (at 3000 rpm, 5 minutes) to recover the supernatant. The IL-4 level in the recovered supernatant was measured according to the manual provided by the Mouse IL-4 ELISA set (BD Biosciences). The day before ELISA was carried out, the IL-4 capture antibody was diluted in phosphate buffered saline, coated on a microwell, and then stored at 4° C. overnight. Each well was washed three times with a buffer solution and then blocked with 2% Bovine Serum Albumin (BSA) for 1 hour at room temperature. After washing with buffer solution three times, 100 μl of sample was dispensed into each well and left at room temperature for 2 hours. Detection antibody which was washed 3 times with washing buffer solution and diluted was dispensed into each well and allowed to react at room temperature for 1 hour and left at room temperature for 1 hour. Thereafter, the secondary HRP conjugated antibody was reacted at room temperature for 30 minutes, washed three times with buffer solution, and treated with 50 μl of stop solution for each well, and then the optical density was measured at 450 nm with an ELISA microplate leader. The results of the measured expression reduction rate ([…]) were shown in Table 11, Table 12, FIG. 11 and FIG. 12 below.

[4] = test system: CXCL8 (IL-8); experiment: CXCL8 (IL-8) expression reduction in Gemcitabine-treated THP-1 cells (ELISA); format: cell-based, human; settings: for CXCL8 [IL-8] concentration (average ± deviation): THP-1 cells
Experimental: In RPMI (Hyclone, Thermo Scientific) medium to which 10% Fetal Bovine Serum was added, THP-1 cells, a human macrophage family, were suspended at a concentration of 1×10^5 cells/ml, and culture was conducted in a 5% CO2 humidified incubator at 37° C. The cultured THP-1 cells were inoculated into a 12 well plate by 1×10^6 cells/ml and stabilized for 30 minutes. Then, the culture solution was treated with a glycerol derivative compounds of the type shown in Table 6 below for 1 hour and then was treated with Gemcitabine (2 μg/ml) of a cell stimulator, and subsequent further incubation was conducted for 24 hours. Thereafter 1.5 ml of the culture supernatant was collected for each well and centrifuged (at 3000 rpm, 5 minutes) to recover the supernatant. The CXCL8 (IL-8) level in the recovered supernatant was measured according to the manual provided by the human IL-8 ELISA set (BD Biosciences). The day before ELISA was carried out, the IL-8 capture antibody was diluted in phosphate buffered saline, coated on a microwell, and then stored at 4° C. overnight. Each well was washed three times with a buffer solution and then blocked with 2% Bovine Serum Albumin (BSA) for 1 hour at room temperature. After washing with washing buffer solution three times, 100 μl of sample was dispensed into each well and left at room temperature for 2 hours. Detection antibody which was washed 3 times with washing buffer and diluted was dispensed into each well and allowed to react at room temperature for 1 hour and left at room temperature for 1 hour. Thereafter, the secondary HRP conjugated antibody was reacted at room temperature for 30 minutes, washed three times with a washing buffer, and treated with 50 μl of stop solution for each well, and then the optical density was measured at 450 nm with an ELISA microplate leader.

[5] = test system: STAT3; experiment: STAT3 activity, pGL4.47 SIE luciferase reporter in LPS-treated RAW264.7 cells; format: cell-based, mouse; settings: sample 100 μg/ml 1 h, then LPS 1 μg/ml 18 h
Experimental: pGL4.47 [luc2P/SIE/Hygro] vector containing the sis-Inducible Element that binds to STAT3 was injected into RAW264.7 cells to confirm the degree of STAT3 activity. In DMEM (Hyclone, Thermo Scientific) medium to which 10% Fetal Bovine Serum was added, RAW264.7 cells were cultured at a concentration of 1×10^5 cells/ml, and maintained in a 5% CO2 humidified incubator at 37° C. The cultured RAW264.7 cells were inoculated into a 48 well plate by 1×10^5 cells/ml and stabilized for 18 hours. Thereafter, the pGL4.47 [luc2P/SIE/Hygro] vector containing sis-Inducible Element was mixed with Attractene to induce complex formation at room temperature for 15 minutes. This complex was treated with the cells and then further incubated for 18 hours. Thereafter, the culture solution was treated with a glycerol derivative compounds of the type shown in Table 5 below for 1 hour and then LPS (1 μg/ml) was treated and further incubated for 18 hours for STAT3 activity. Thereafter, the culture supernatant was removed for each well, and the remaining cells were lysed with a cell lysis buffer, and then cell lysate was recovered. 90 μl of luciferase reagent was mixed with 10 μl of the recovered cell lysate, and the degree of fluorescence was confirmed using a luminometer.

[6] = test system: STAT3; experiment: IL-6-induced STAT3 activity, SEAP expression in HEK-Blue IL-6 cells; format: cell-based
Experimental: HEK-Blue™ IL-6 cells were used to confirm STAT3 activity by STAT3-induced SEAP (secreted embryonic alkaline phosphatase) expression. In DMEM (Hyclone, Thermo Scientific) medium to which 10% Fetal Bovine Serum was added, HEK-Blue™ IL-6 cells were cultured at a concentration of 1×10^5 cells/ml, and maintained in a 5% CO2 humidified incubator at 37° C. The cultured HEK-Blue™ IL-6 cells were inoculated by 1×10^5 cells/ml. Then, the culture solution was treated with a glycerol derivative compounds of the type shown in Table 4 below for 1 hour and then IL-6 (5 ng/ml) was further incubated for 24 hours for STAT3 activity. Thereafter, the culture supernatant was collected for each well and centrifuged (at 3000 rpm, 5 minutes) to recover the supernatant. The SEAP expression level in the recovered supernatant was mixed with Quanti blue reagent and the supernatant at a ratio of 1:10 and left at 37° C. for about 30 minutes. Then, the SEAP concentration was confirmed at 650 nm wavelength using a spectrophotometer, and the results (STAT3 activity inhibitory ability) thereof are shown in Table 4 and FIG. 3 below.

[7] = test system: STAT6; experiment: IL-4-induced STAT6 activity, pGL4-STAT6 luciferase reporter in A549 cells; format: cell-based
Experimental: In DMEM (Dulbecco Modified Eagle Medium, Hyclone, Thermo Scientific) medium to which 10% Fetal Bovine Serum was added, A549 cells were subcultured at a concentration of 1×10^5 cells/ml, and culture was conducted in a 5% CO2 humidified incubator at 37° C. The cultured A549 cells were inoculated into a 48 well plate by 1×10^5 cells/ml and stabilized for 18 hours. Thereafter, pGL4-STAT6 reporter vector containing a STAT6 binding promoter portion was mixed with Attractene to induce complex formation at room temperature for 15 minutes. This complex was treated with the cells and then further incubated for 24 hours. Thereafter, the culture solution was treated with a glycerol derivative compounds of the type shown in Table 9 and 10 below for 1 hour, and then IL-4 (2 ng/ml or 10 ng/ml) was further incubated for 20 hours for STAT6 activity. Thereafter, the culture supernatant was removed for each well, and the remaining cells were lysed with a cell lysis buffer, and then cell lysate was recovered. 90 μl of luciferase reagent was mixed with 10 μl of the recovered cell lysate, and the degree of fluorescence was confirmed using a luminometer. The results are shown in Table 9, Table 10, FIG. 9 and FIG. 10 below.

[8] = sample 100 μg/ml 1 h, then IL-4 (10 ng/ml) 20 h, Table 10
[9] = THP-1 cells treated with Gemcitabine

Molecule	IL-6 concentration (average ± deviation) [2]	IL-4 concentration (average ± deviation) [3]	STAT3 activity_Luciferase activity (average ± deviation) [5]	STAT6 activity_Luciferase activity (average ± deviation) [7, 8]	other results
CCCCC/C=C\C/C=C\CCCCCCCC(=O)OC(COC(=O)CCCCCCCC)COC(=O)CCCCCCCCCCCCCCC (stereo not drawn) [EC_A84]	0.799 ± 0.025 pg/µL	615.6 ± 25.0 pg/µL	780 ± 27.5	–	Number of HL-60 cells migrated through Transwell ([1]; supernatant of THP-1 cells treated with sample 100 μg/ml 1 h, then Gemcitabine 2 μg/ml 24 h): 2197.8 Cell Number; CXCL8 [IL-8] concentration (average ± deviation) ([4]; sample 100 μg/ml 1 h, then Gemcitabine 2 μg/ml 24 h): 110.5 ± 6.8 pg/µL
IL-6: IL-6 cytokine used to induce STAT3 activity [reference compound]	–	–	–	–	increase of STAT3 activity compared to the negative control group ([6]; HEK-Blue IL-6 cells treated with IL-6): about 2.3 times; STAT3 activity_SEAP expression(%) (average ± deviation) ([6]; HEK-Blue IL-6 cells, IL-6 5 ng/ml alone, negative control = 100): 228.8 ± 17.0%
CCCCC/C=C\C/C=C\CCCCCCCC(=O)OC(COC(=O)CCCCCCCCCCC)COC(=O)C(C)(C)C (stereo not drawn) [EC_A95]	0.777 ± 0.020 pg/µL	680.1 ± 12.2 pg/µL	663 ± 61.5	13649.0 ± 7369.3	–
CCCCC/C=C\C/C=C\CCCCCCCC(=O)OC(COC(=O)CCCCCCCCCCC)COC(=O)C(C)C (stereo not drawn) [EC_A94]	0.702 ± 0.079 pg/µL	523.8 ± 62.3 pg/µL	640 ± 275.7	14677.5 ± 2168.7	–
Nc1ccn([C@@H]2O[C@H](CO)[C@@H](O)C2(F)F)c(=O)n1 [Gemcitabine, reference compound]	–	–	–	–	increase of neutrophil cell migration compared to the negative control group [1, 9]: about twice; Number of HL-60 cells migrated through Transwell ([1]; supernatant of THP-1 cells treated with Gemcitabine 2 μg/ml alone): 5022.9 Cell Number; increase of CXCL8 (IL-8) secretion compared to the negative control group [4, 9]: about 13 times; CXCL8 [IL-8] concentration (average ± deviation) ([4]; Gemcitabine 2 μg/ml alone): 104.6 ± 1.5 pg/µL
B1	–	–	–	–	STAT6 activity_Luciferase activity (average ± deviation) ([7]; IL-4 alone, concentration printed 2 (head μg/ml; method 2 ng/ml), Table 9): 982.0 ± 38.7; STAT6 activity_Luciferase activity (average ± deviation) ([7]; IL-4 alone, concentration printed 10 (head μg/ml; method 10 ng/ml), Table 10): 22846.2 ± 2157.3
